Data as given in ChEMBL document CHEMBL4007467, “Effects of 6-paradol, an unsaturated ketone from gingers, on cytochrome P450-mediated drug metabolism” (Bioorg Med Chem Lett, 2017).

What was measured:
Type in all cases: ADME
[1] = molecular target: T1, Cytochrome P450 2A6 (Homo sapiens, UniProt P11509); assay: Inhibition of CYP2A6 in human liver microsomes assessed as enzyme-mediated metabolite formation using coumarin as substrate incubated for 5 mins followed by NADPH addition measured after 30 mins by LC-MS/MS analysis
T1 sequence (P11509 whole entry): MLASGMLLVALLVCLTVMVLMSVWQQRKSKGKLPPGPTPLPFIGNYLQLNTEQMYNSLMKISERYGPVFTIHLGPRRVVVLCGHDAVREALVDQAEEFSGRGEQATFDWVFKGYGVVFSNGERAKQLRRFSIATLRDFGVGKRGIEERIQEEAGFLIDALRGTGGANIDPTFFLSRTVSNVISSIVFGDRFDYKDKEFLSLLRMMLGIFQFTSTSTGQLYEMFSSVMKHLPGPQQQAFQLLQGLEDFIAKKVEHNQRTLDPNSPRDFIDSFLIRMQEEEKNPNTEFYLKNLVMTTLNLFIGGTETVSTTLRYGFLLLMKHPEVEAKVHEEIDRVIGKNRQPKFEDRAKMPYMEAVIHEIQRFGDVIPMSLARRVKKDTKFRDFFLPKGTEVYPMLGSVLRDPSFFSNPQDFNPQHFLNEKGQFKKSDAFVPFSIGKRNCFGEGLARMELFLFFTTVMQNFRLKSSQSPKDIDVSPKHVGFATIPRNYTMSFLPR

[2] = molecular target: T2, CYP2B6 (Homo sapiens, UniProt P20813); assay: Inhibition of CYP2B6 in human liver microsomes assessed as enzyme-mediated metabolite formation at 0.3 uM using bupropion as substrate incubated for 5 mins followed by NADPH addition measured after 30 mins by LC-MS/MS analysis relative to control; design: scale not given: the % may be the effect or the level left; conditions: probe bupropion, read-out: Activity
T2 sequence (P20813 whole entry): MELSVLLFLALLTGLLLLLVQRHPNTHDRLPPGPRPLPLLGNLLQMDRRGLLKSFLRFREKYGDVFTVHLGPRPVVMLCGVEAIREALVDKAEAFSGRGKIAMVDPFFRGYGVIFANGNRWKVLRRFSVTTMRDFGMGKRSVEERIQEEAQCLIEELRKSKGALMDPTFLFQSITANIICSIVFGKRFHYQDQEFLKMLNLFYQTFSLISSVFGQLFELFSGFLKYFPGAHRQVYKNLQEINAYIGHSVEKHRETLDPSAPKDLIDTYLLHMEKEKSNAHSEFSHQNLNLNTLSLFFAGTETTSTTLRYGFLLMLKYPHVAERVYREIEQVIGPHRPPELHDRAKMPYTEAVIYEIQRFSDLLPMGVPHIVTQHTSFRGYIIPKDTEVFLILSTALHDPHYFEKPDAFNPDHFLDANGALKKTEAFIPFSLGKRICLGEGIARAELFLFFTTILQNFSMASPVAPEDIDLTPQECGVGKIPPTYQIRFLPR

[3] = molecular target: T2, CYP2B6; assay: Inhibition of CYP2B6 in human liver microsomes assessed as enzyme-mediated metabolite formation at 30 uM using bupropion as substrate incubated for 5 mins followed by NADPH addition measured after 30 mins by LC-MS/MS analysis relative to control; design: scale not given: the % may be the effect or the level left; conditions: probe bupropion, read-out: Activity
[4] = molecular target: T3, Cytochrome P450 2C8 (Homo sapiens, UniProt P10632); assay: Inhibition of CYP2C8 in human liver microsomes assessed as enzyme-mediated metabolite formation using paclitaxel as substrate incubated for 5 mins followed by NADPH addition measured after 30 mins by LC-MS/MS analysis
T3 sequence (P10632 whole entry): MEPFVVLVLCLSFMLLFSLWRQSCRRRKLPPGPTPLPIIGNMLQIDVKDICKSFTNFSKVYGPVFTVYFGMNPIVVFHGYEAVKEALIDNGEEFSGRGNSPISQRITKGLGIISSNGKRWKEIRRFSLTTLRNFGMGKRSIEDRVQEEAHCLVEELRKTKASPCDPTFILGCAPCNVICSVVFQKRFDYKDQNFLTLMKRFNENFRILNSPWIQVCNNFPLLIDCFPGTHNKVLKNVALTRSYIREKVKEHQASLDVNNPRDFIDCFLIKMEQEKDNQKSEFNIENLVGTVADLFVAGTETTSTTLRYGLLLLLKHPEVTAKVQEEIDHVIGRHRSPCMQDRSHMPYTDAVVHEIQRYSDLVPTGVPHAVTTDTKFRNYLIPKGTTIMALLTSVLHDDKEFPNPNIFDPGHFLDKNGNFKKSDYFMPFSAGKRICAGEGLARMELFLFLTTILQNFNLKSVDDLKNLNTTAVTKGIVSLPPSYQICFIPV

[5] = molecular target: Cytochrome P450 3A4 (Homo sapiens, UniProt P08684); assay: Inhibition of CYP3A4 in human liver microsomes assessed as enzyme-mediated metabolite formation using testosterone as substrate incubated for 5 mins followed by NADPH addition measured after 30 mins by LC-MS/MS analysis
[6] = molecular target: T4, CYP1A2 (Homo sapiens, UniProt P05177); assay: Inhibition of CYP1A2 in human liver microsomes assessed as enzyme-mediated metabolite formation at 10 uM using phenacetin as substrate preincubated for 20 mins followed by substrate addition measured after 30 mins in presence of NADPH by LC-MS/MS analysis relative to control; design: scale not given: the % may be the effect or the level left; conditions: probe phenacetin, read-out: Activity
T4 sequence (P05177 whole entry): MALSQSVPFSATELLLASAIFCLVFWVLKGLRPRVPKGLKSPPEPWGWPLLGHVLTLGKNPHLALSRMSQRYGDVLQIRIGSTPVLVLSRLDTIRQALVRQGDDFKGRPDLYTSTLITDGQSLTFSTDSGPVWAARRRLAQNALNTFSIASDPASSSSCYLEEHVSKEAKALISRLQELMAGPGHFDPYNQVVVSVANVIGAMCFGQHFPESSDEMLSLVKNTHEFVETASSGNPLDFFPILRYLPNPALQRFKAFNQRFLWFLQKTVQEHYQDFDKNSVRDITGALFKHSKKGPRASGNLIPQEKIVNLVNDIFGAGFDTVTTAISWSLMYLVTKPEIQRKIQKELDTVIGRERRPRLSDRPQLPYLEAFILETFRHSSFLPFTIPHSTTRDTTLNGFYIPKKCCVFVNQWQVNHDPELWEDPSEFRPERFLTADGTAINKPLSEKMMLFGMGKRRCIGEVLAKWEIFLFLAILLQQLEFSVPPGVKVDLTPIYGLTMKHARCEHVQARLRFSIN

[7] = molecular target: T5, CYP2A6 (Homo sapiens, UniProt P11509); assay: Inhibition of CYP2A6 in human liver microsomes assessed as enzyme-mediated metabolite formation at 10 uM using coumarin as substrate preincubated for 20 mins followed by substrate addition measured after 30 mins in presence of NADPH by LC-MS/MS analysis relative to control; design: scale not given: the % may be the effect or the level left; conditions: probe coumarin, read-out: Activity
T5 sequence (P11509 whole entry): T1 sequence (P11509 whole entry)

[8] = molecular target: T2, CYP2B6; assay: Inhibition of CYP2B6 in human liver microsomes assessed as enzyme-mediated metabolite formation at 30 uM using bupropion as substrate preincubated for 20 mins followed by substrate addition measured after 30 mins in presence of NADPH by LC-MS/MS analysis relative to control; design: scale not given: the % may be the effect or the level left; conditions: probe bupropion, read-out: Activity
[9] = molecular target: CYP2C9 (Homo sapiens, UniProt P11712); assay: Inhibition of CYP2C9 in human liver microsomes assessed as enzyme-mediated metabolite formation at 1 uM using diclofenac as substrate preincubated for 20 mins followed by substrate addition measured after 30 mins in presence of NADPH by LC-MS/MS analysis relative to control; design: scale not given: the % may be the effect or the level left; conditions: probe diclofenac, read-out: Activity
Sequence of CYP2C9 (P11712 whole entry): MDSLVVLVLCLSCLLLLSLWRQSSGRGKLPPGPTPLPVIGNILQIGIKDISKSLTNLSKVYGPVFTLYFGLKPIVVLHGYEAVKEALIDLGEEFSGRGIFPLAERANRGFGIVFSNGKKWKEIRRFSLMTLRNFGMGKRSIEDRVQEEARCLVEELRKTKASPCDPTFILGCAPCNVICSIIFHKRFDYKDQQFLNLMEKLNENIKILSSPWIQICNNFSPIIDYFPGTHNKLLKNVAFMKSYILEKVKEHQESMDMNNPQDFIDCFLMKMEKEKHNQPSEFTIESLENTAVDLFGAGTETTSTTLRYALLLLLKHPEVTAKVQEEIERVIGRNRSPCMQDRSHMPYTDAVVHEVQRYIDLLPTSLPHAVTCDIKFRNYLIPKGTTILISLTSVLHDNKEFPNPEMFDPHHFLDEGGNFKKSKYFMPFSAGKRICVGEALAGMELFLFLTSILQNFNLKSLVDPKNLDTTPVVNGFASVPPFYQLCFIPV

Sequence of Cytochrome P450 3A4 (P08684 whole entry): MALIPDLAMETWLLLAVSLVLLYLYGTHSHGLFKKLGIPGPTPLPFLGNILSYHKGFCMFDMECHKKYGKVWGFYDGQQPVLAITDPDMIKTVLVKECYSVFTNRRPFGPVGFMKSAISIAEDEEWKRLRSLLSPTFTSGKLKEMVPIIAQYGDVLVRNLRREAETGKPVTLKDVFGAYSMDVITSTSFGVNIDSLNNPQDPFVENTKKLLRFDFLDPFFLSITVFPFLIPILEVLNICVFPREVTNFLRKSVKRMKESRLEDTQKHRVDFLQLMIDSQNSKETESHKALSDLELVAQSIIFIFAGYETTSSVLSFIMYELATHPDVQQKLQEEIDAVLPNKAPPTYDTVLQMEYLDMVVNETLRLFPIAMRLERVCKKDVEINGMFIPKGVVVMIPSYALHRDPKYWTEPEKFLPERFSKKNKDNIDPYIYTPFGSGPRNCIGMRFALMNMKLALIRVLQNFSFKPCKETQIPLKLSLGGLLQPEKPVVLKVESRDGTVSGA

Work on `CCCCCCCC(=O)CCc1ccc(O)c(OC)c1` yielded an IC50 [1] of over 30 µM, an activity at 0.5 h, 0.3 µM [2] of 68.8% and an activity at 0.5 h, 30 µM [3] of 37%. For the same compound, the IC50 [4] was 5.1 µM, the IC50 [5] was 30 µM and the activity at 0.5 h, 10 µM [6] was 59%. It also gave an activity at 0.5 h, 10 µM [7] of 96.1%, an activity at 0.5 h, 30 µM [8] of 45.5% and an activity at 0.5 h, 1 µM [9] of 81.1%.
